Data taken from patent US9254292B2, “Fused tetracycle derivatives and methods of use thereof for the treatment of viral diseases” (Merck Sharp & Dohme Corp., priority 2010, dated 2016).

Experiments:
HCV replicon 1a Y93H = test: Cell-based HCV replicon assay, genotype 1a Y93H mutant; details: Hepatitis C virus, 72 h, read-out: Replicon EC50 1a Y93H
Procedure: To measure cell-based anti-HCV activity of selected compounds of the present invention, replicon cells were seeded at 5000 cells/well in 96-well collagen I-coated Nunc plates in the presence of the test compound. Various concentrations of test compound, typically in 10 serial 2-fold dilutions, were added to the assay mixture, with the starting concentration ranging from 250 μM to 1 μM. The final concentration of DMSO was 0.5%, fetal bovine serum was 5%, in the assay media. Cells were harvested on day 3 by the addition of 1× cell lysis buffer (Ambion cat #8721). The replicon RNA level was measured using real time PCR (Taqman assay). The amplicon was located in 5B. The PCR primers were: 5B.2F, ATGGACAGGCGCCCTGA (SEQ ID NO. 1); 5B.2R, […] (SEQ ID NO. 2); the probe sequence was FAM-labeled CACGCCATGCGCTGCGG (SEQ ID NO. 3). GAPDH RNA was used as endogenous control and was amplified in the same reaction as NS5B (multiplex PCR) using primers and VIC-labeled probe recommended by the manufacturer (PE Applied Biosystem). […] Alternatively, to quantitate the absolute amount of replicon RNA, a standard curve was established by including serially diluted T7 transcripts of replicon RNA in the Taqman assay. […]
(§1) HCV replicon assay data was calculated for selected compounds of the present invention using this method and is provided in the table below.

HCV replicon 1a WT = test: Cell-based HCV replicon assay, genotype 1a WT; design: species or system Hepatitis C virus; details: replicon cells, day 3, replicon RNA by real time PCR (Taqman)
Procedure: (§2) To measure cell-based anti-HCV activity of selected compounds of the present invention, replicon cells were seeded at 5000 cells/well in 96-well collagen I-coated Nunc plates in the presence of the test compound. Various concentrations of test compound, typically in 10 serial 2-fold dilutions, were added to the assay mixture, with the starting concentration ranging from 250 μM to 1 μM. The final concentration of DMSO was 0.5%, fetal bovine serum was 5%, in the assay media. Cells were harvested on day 3 by the addition of 1× cell lysis buffer (Ambion cat #8721). The replicon RNA level was measured using real time PCR (Taqman assay). The amplicon was located in 5B. The PCR primers were: 5B.2F, ATGGACAGGCGCCCTGA (SEQ ID NO. 1); 5B.2R, […] (SEQ ID NO. 2); the probe sequence was FAM-labeled CACGCCATGCGCTGCGG (SEQ ID NO. 3). GAPDH RNA was used as endogenous control and was amplified in the same reaction as NS5B (multiplex PCR) using primers and VIC-labeled probe recommended by the manufacturer (PE Applied Biosystem). The real-time RT-PCR reactions were run on ABI PRISM 7900HT Sequence Detection System using the following program: 48° C. for 30 minutes, 95° C. for 10 minutes, 40 cycles of 95° C. for 15 sec, 60° C. for 1 minutes The ΔCT values (CT5B-CTGAPDH) were plotted against the concentration of test compound and fitted to the sigmoid dose-response model using XLfit4 (MDL). EC50 was defined as the concentration of inhibitor necessary to achieve ΔCT=1 over the projected baseline; EC90 the concentration necessary to achieve ΔCT=3.2 over the baseline. Alternatively, to quantitate the absolute amount of replicon RNA, a standard curve was established by including serially diluted T7 transcripts of replicon RNA in the Taqman assay. All Taqman reagents were from PE Applied Biosystems. Such an assay procedure was described in detail in e.g. Malcolm et al., Antimicrobial Agents and Chemotherapy 50: 1013-1020 (2006).
as §1

HCV replicon 1b WT = test: Cell-based HCV replicon assay, genotype 1b WT; design: species or system Hepatitis C virus; details: replicon cells, day 3, replicon RNA by real time PCR (Taqman)
Procedure: as §2, §1

Row | Compound | EC50 (HCV replicon 1a Y93H) [nM] | EC50 (HCV replicon 1a WT; Hepatitis C virus, 72 h) [nM] | EC50 (HCV replicon 1b WT; Hepatitis C virus, 72 h) [nM] | EC50 (HCV replicon 1a WT) [nM] | EC50 (HCV replicon 1b WT) [nM]
1 | COC(=O)N[C@H](C(=O)N1CCC[C@H]1c1ncc(-c2ccc3c(c2)OCCc2c-3oc3ccc(-c4cnc([C@@H]5CCCN5C(=O)[C@@H](NC(=O)OC)C(C)C)[nH]4)cc23)[nH]1)C(C)C [Compound 5] | 186 | 0.015 | 0.001 |  | 
2 | COC(=O)NC(C(=O)N1CCC[C@H]1c1ncc(-c2ccc3c(c2)cc2n3CCOc3cc(-c4cnc(C5CCCN5C(=O)[C@@H](NC(=O)OC)C(C)C)[nH]4)ccc3-2)[nH]1)C(C)C (some centres unmarked) [Compound 7] | 565 | 0.01 | 0.003 |  | 
3 | COC(=O)NC(C(=O)N1CCC[C@H]1c1ncc(-c2ccc3c(c2)c(F)c2n3CCOc3cc(-c4cnc(C5CCCN5C(=O)[C@@H](NC(=O)OC)C(C)C)[nH]4)ccc3-2)[nH]1)C(C)C (some centres unmarked) [Compound 8] |  |  |  | 0.016 | 0.007
4 | COC(=O)NC(C(=O)N1CCC[C@H]1c1ncc(-c2ccc3c(c2)c(F)c2n3CCOc3cc(-c4cnc(C5CCCN5C(=O)[C@@H](NC(=O)OC)C(C)C)[nH]4)ccc3-2)[nH]1)C(C)C (some centres unmarked) [Compound 9] |  |  |  | 1.18 | 0.27
5 | COC(=O)NC(C(=O)N1CCC[C@@H]1c1ncc(-c2ccc3c(c2)c(F)c2n3CCOc3cc(-c4cnc(C5CCCN5C(=O)[C@@H](NC(=O)OC)C(C)C)[nH]4)ccc3-2)[nH]1)C(C)C (some centres unmarked) [Compound 10] |  |  |  | 2 | 0.7
6 | COC(=O)NC(C(=O)N1CCC[C@@H]1c1ncc(-c2ccc3c(c2)c(F)c2n3CCOc3cc(-c4cnc(C5CCCN5C(=O)[C@@H](NC(=O)OC)C(C)C)[nH]4)ccc3-2)[nH]1)C(C)C (some centres unmarked) [Compound 11] |  |  |  | 0.01 | 0.005
